{"source": "paper PMC12282092", "about": "“Discovery of a non-nucleoside inhibitor that binds to a novel site in the palm domain of the respiratory syncytial virus RNA-dependent RNA polymerase” (Journal of Virology, 2025)", "key": {"[1]": {"system": "RSV replicon in APC-126 cells", "test": "APC-126 minireplicon assay", "format": "cell-based", "conditions": "human respiratory syncytial virus, APC-126, 72 h", "method": "(§1) A proprietary BHK-based cell line, APC-126, harboring the RSV replicon, was obtained from Apath (New York, USA) and cultured in DMEM/Ham’s F-12 50/50, supplemented with 10% (vol/vol) FBS (Gibco), 1% (vol/vol) penicillin-streptomycin (Gibco), 1% (vol/vol) MEM non-essential amino acids (Gibco), 5% (vol/vol) Tryptose Phosphate Broth (Sigma-Aldrich), and 10 µg/mL blasticidin (Invitrogen) at 37°C in a humidified 5% CO2 incubator ([36]). Cells were plated (3,500 cells/well) in white, 96-well, clear-bottom plates (Corning) and incubated for 24 h. Compound serial dilutions (9 point, threefold) were prepared in DMSO and diluted 10-fold in culture media before treating cells (final [DMSO] = 1% [vol/vol]). […] In parallel, cytotoxicity was measured using CellTiter-Glo (Promega) under the same conditions. […] Figures were prepared with GraphPad Prism."}, "[2]": {"system": "RSV-B/05_036549", "test": "microbe, parasite or virus in culture", "format": "cell-based", "conditions": "human respiratory syncytial virus; RSV-B/05_036549, HeLa cells, RT-qPCR"}, "[3]": {"test": "APC-126 cytotoxicity assay (CellTiter-Glo)", "format": "cell-based", "conditions": "hamster; APC-126, 72 h; read-out: Replicon CC50", "method": "as §1"}, "[4]": {"target": "T1, RSV L+P-JNJ-8003 complex (Human respiratory syncytial virus A, UniProt P28887)", "T1 construct": "a biophysical SPR assay was established using full-length RSV L+P complex; Twin-Strep-tag (N); made in house; host or cells: Sf9 insect cells (baculovirus)", "test": "SPR A-B-A competition with capping domain binder JNJ-8003", "format": "binding", "conditions": "60 nM JNJ-8003 competitor", "method": "(§2) Here, the competitor was held at a constant concentration (60 nM for JNJ-8003 and 150 nM for JNJ-7184) during baseline acquisition, association, and dissociation of the test compound.\n(§3) The Biacore A-B-A injection method was used to assess compound binding competition. RSVpol was immobilized as above. […] Dissociation of any bound 22 was then measured for 500 s in the presence of a competitor. The temperature was 25°C, and the flow rate was kept at 30 µL/min."}, "[5]": {"target": "human mitochondrial RNA polymerase (POLRMT) (Homo sapiens, UniProt O00411)", "test": "POLRMT assay"}, "[6]": {"target": "T2, RSV L+P (Human respiratory syncytial virus A, UniProt P28887)", "T2 construct": "Biochemical activity of 1 and 22 against full-length RSV L+P; Twin-Strep-tag (N); made in house; host or cells: Sf9 insect cells (baculovirus, pFastBac Dual)", "T2 sequence (P03421 whole entry)": "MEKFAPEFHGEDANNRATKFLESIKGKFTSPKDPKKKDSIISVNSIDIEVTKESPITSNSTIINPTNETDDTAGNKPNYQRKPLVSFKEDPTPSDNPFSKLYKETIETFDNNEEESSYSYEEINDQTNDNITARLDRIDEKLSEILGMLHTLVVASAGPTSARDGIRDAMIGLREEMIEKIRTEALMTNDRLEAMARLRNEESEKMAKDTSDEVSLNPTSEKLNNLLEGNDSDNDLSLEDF", "T2 sequence (P28887 whole entry)": "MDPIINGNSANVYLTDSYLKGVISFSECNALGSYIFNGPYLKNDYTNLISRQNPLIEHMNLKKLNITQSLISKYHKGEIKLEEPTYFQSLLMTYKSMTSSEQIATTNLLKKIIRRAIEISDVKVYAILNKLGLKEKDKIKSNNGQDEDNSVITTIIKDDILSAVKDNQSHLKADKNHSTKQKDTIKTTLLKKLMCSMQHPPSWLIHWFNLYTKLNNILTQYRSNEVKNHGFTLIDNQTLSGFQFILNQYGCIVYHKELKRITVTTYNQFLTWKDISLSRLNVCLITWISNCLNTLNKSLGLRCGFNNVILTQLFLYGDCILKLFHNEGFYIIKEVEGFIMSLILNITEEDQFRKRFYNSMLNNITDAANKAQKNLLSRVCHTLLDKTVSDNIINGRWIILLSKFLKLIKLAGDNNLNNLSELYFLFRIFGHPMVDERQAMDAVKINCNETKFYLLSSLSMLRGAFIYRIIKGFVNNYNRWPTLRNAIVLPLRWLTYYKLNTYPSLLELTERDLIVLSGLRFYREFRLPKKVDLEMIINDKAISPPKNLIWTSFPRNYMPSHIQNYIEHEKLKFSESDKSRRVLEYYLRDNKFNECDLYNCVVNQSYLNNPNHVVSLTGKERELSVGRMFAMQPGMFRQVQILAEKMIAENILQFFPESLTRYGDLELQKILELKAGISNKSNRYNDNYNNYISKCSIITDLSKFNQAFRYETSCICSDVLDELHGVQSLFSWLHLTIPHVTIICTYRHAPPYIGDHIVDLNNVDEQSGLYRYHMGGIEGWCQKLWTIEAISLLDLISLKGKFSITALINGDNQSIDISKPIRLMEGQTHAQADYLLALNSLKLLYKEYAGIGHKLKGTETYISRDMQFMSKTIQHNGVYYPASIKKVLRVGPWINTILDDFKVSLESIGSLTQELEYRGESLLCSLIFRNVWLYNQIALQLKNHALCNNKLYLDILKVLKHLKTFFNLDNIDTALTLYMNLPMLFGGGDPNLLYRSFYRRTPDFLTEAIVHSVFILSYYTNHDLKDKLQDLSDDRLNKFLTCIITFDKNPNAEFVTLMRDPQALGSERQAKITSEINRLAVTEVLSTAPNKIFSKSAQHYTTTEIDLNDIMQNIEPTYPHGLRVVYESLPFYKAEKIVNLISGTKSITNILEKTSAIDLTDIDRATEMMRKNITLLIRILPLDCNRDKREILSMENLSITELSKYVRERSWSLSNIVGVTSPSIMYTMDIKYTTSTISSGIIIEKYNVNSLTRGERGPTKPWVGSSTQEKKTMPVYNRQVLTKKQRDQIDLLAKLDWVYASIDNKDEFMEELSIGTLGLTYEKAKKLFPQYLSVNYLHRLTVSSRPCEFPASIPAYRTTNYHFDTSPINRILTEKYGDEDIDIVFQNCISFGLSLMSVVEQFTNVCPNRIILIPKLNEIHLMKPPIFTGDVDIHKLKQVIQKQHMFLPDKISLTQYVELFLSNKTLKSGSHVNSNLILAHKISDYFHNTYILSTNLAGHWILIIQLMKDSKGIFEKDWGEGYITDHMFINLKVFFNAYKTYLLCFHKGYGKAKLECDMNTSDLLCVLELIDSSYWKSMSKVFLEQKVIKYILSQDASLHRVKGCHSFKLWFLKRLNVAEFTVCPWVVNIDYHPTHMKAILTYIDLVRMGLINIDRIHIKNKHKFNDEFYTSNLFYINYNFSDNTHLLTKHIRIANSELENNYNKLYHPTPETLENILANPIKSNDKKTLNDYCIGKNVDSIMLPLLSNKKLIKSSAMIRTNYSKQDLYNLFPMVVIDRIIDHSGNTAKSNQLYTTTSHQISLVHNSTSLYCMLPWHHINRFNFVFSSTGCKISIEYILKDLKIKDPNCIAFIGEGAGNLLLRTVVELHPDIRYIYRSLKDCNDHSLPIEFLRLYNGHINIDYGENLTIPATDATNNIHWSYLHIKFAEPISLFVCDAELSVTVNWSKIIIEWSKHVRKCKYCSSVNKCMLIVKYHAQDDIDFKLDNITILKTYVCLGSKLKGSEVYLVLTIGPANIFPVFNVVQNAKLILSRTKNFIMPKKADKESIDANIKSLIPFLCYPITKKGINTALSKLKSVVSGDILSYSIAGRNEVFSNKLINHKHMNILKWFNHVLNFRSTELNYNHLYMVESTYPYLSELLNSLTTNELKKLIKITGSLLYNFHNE", "test": "Yonetani-Theorell mutual exclusivity analysis", "format": "biochemical", "description": "Here, matrix titrations of the two inhibitors were carried out, and initial rates were determined for each inhibitor combination. Data were fitted to the Yonetani-Theorell equation (Supp. equation S1) to determine the interaction constant, γ. […] When γ > 1, binding is antagonistic, and as γ approaches infinity, the ligands are considered mutually exclusive. Conversely, when γ < 1, binding is synergistic."}, "[7]": {"system": "HeLa cells", "test": "HeLa cytotoxicity assay (ATPlite)", "conditions": "HeLa cells", "method": "(§4) Compound serial dilutions (9 point, fourfold) were prepared in DMSO, and 200 nL was transferred to black, 384-well, clear-bottom microtiter plates (Corning, Amsterdam, The Netherlands) via acoustic drop ejection ([36], [50]). […] Then, 20 µL of a HeLa cell suspension (3,000 cells/well) was added with a Multidrop Combi, and cells were incubated at 37°C in a 5% CO2 atmosphere. After 72 h, GFP expression was quantified using an EnVision Multimode Plate Reader (Perkin Elmer, Zaventem, Belgium), and data were normalized to untreated and media-only (no virus) controls. Cytotoxicity was determined in parallel using the ATPlite kit (Perkin Elmer, Zaventem, Belgium). Luminescence was measured in white, 384-well microtiter plates (Corning) on a ViewLux uHTS Microplate Imager apparatus (PerkinElmer, Zaventem, Belgium), and cellular ATP content was quantified by normalizing to untreated and media-only (no cell) controls. […] Figures were prepared with GraphPad Prism."}, "[8]": {"test": "HeLa cytotoxicity assay (ATPlite)", "conditions": "human, HeLa cells", "method": "as §4"}, "[9]": {"target": "T2, RSV L+P", "test": "SPR assay", "format": "binding", "conditions": "25°C", "description": "A Biacore Series S SA (Cytiva) chip is first derivatized by a 60 s injection of 50 µg/mL Tris NTA-biotin (synthesized in-house). The chip was further conditioned by a 60 s injection of 350 mM EDTA (Cytiva, 28995043) followed by a 60 s injection of 0.5 mM NiCl2 (Cytiva, 28995043). Purified human, recombinant His-tagged RSV L+P protein (C-terminal 8× His) was captured via a 1,200 s injection at 30 µg/mL to obtain immobilization levels of 8,000–9,000 RU. The surface was then blocked with a 60 s injection of 100 µM PEG-biotin (Thermo Scientific). The experiments were performed at 25°C, using a Biacore 8K+ (Cytiva) and running buffer: 10 mM HEPES, 300 mM NaCl, 10 mM MgCl2, pH 7.4, 5% glycerol, 2% DMSO, 0.005% p20, 0.5 mM TCEP. […] Reference and buffer-blank subtracted data were analyzed with the Biacore 8K Insight Evaluation Software and fit to a 1:1 Langmuir model to obtain KD values and binding kinetics."}, "[10]": {"system": "RSV-A/A2", "test": "microbe, parasite or virus in culture", "format": "cell-based", "conditions": "human respiratory syncytial virus; RSV-A/A2, HeLa cells, RT-qPCR"}, "[11]": {"system": "RSV-B/Wash/18537", "test": "microbe, parasite or virus in culture", "format": "cell-based", "conditions": "human respiratory syncytial virus; RSV-B/Wash/18537, HeLa cells, RT-qPCR"}, "[12]": {"system": "RSV-A/Long", "test": "microbe, parasite or virus in culture", "format": "cell-based", "conditions": "human respiratory syncytial virus, HeLa cells, RT-qPCR"}, "[13]": {"target": "T2, RSV L+P", "test": "Single-nucleotide incorporation (primer extension) assays", "format": "biochemical", "conditions": "50 µM 22, primers AC, ACG, ACGA, ACGAG", "method": "Reactions were initiated by the addition of 100 nM [α-^32P]NTP (3,000 Ci/mmol) tracer and run for an additional 30 min before quenching with an equal volume of gel loading buffer (90% formamide, 50 mM EDTA, 0.05% Xylene Cyanol and Bromophenol Blue). Gel images were obtained and processed as described for the de novo assay, and data were normalized to untreated controls to determine percent inhibition."}, "[14]": {"test": "Metabolic stability in liver microsomes", "conditions": "in vitro intrinsic clearance in human liver microsomes, n = 1"}, "[15]": {"test": "in vitro", "conditions": "human"}, "[16]": {"system": "rgRSV224 virus (RSV A2) in HeLa cells", "test": "HeLa cell rgRSV224 eGFP reporter viral proliferation assay", "format": "cell-based", "conditions": "RSV eGFP phenotypic assay in HeLa cells; for EC50: MOI 1, 72 h, n ≥ 2, read-out: Cellular EC50", "method": "as §4"}, "[17]": {"system": "HeLa cells", "conditions": "HeLa cytotoxicity"}, "[18]": {"target": "T2, RSV L+P", "test": "De novo RNA synthesis assay (TrC-14, +3 site)", "format": "biochemical", "conditions": "TrC-14 template", "method": "The reaction was quenched by an equal volume of gel loading buffer consisting of 90% formamide and 50 mM EDTA. Samples were heated to 95°C for 5 min, resolved on a 22.5% polyacrylamide urea sequencing gel at 80 W, and then transferred to Whatman cellulose chromatography paper (Millipore Sigma). The gel was dried for 1 h on a gel dryer (Bio-Rad), exposed to a phosphor screen, and imaged using a Typhoon phosphorimager (GE Healthcare)."}, "[19]": {"target": "T2, RSV L+P", "test": "Pyrophosphate luminescence detection assay, full-length RSV L+P", "format": "biochemical", "conditions": "pyrophosphate luminescence detection assay", "description": "Working solutions (3×) of RSV L+P (60 nM), substrate (30 µM each of GTP, CTP, UTP, 300 µM ATPαS [Jena Bioscience], 15 µM RNA template TrC-25), detection reagents (6 nM Luciferase, 900 µM luciferin, 3 U/µL ATP Sulfurylase [BioVision], 15 µM adenosine phosphosulfate [APS], 3 mM coenzyme A), were prepared in complete assay buffer. Compounds were dissolved in dimethyl sulfoxide (DMSO) and dispensed to white, 1536-well cyclic olefin copolymer (COC) plates (Corning, 9145BC) using an Echo Acoustic Liquid Handler (Beckman Coulter, San Jose, CA). Substrate (1 µL) and detection reagents (1 µL) were dispensed using a Multidrop Combi Dispenser (ThermoFisher, Waltham, MA), followed by enzyme (1 µL) to initiate the reaction. Final screening concentrations were 20 nM RSV L+P, 10 µM GTP/CTP/UTP, 100 µM ATPαS, 5 µM TrC-25, 2 nM Luciferase (Promega), 300 µM luciferin (Promega), 1 U/µL ATP sulfurylase, 5 µM APS, and 1 mM CoA. […] Luminescence was detected using the PHERAStar FSX (BMG Labtech, Ortenberg, Germany)."}, "[20]": {"target": "T3, RSV L+P-JNJ-7184 complex (Human respiratory syncytial virus A, UniProt P28887)", "T3 construct": "a biophysical SPR assay was established using full-length RSV L+P complex; Twin-Strep-tag (N); made in house; host or cells: Sf9 insect cells (baculovirus)", "T3 sequence (P03421 whole entry, the tested form may be a part)": "as the sequence (P03421 whole entry) above", "T3 sequence (P28887 whole entry, the tested form may be a part)": "as the sequence (P28887 whole entry) above", "test": "SPR A-B-A competition with connector domain binder JNJ-7184", "format": "binding", "conditions": "150 nM JNJ-7184 competitor", "method": "as §2, §3"}, "[21]": {"target": "T2, RSV L+P", "test": "Mode of inhibition by progress curve analysis", "format": "biochemical", "method": "To determine the mode of inhibition, progress curve analysis was carried out with the full-length complex."}}, "note": "Read-outs that look alike come from different tables or passages of the source.", "data": [{"molecule": "CN1C(=O)C2(CCN(c3cnc(C#N)c(Cl)c3)CC2)c2cc(Br)ccc21", "note": "[Compound 22, 5-(5-bromo-1-methyl-2-oxospiro[indoline-3,4'-piperidin]-1'-yl)-3-chloropicolinonitrile]", "values": [{"measurement": "EC50", "setting": "[1]", "value": 2220, "unit": "nM"}, {"measurement": "EC50", "setting": "[2]", "value": 1000, "unit": "nM"}, {"measurement": "CC50 at 72 h", "setting": "[3]", "value": "> 50", "unit": "µM"}, {"measurement": "SPR ka in the presence of JNJ-8003", "setting": "[4]", "value": 119000, "unit": "M⁻¹ s⁻¹"}, {"measurement": "SPR kd in the presence of JNJ-8003", "setting": "[4]", "value": 0.0628, "unit": "s⁻¹"}, {"measurement": "Kd", "setting": "[4]; read-out: SPR KD in the presence of JNJ-8003", "value": 530, "unit": "nM"}, {"measurement": "IC50", "setting": "[5]", "value": "> 100", "unit": "µM"}, {"measurement": "Yonetani-Theorell interaction constant γ", "setting": "[6]; 22 titrated with capping domain inhibitor compound 23", "value": "1.1 ± 0.2"}, {"measurement": "Yonetani-Theorell interaction constant γ", "setting": "[6]; 22 titrated with connector domain inhibitor compound 24", "value": "0.88 ± 0.72"}, {"measurement": "Cytotoxicity Emax", "setting": "[7]", "value": 12.8, "unit": "%"}, {"measurement": "CC50 at 72 h", "setting": "[8]", "value": "> 50", "unit": "µM"}, {"measurement": "SPR kd", "setting": "[9]; immobilized RSV L+P", "value": 0.0609, "unit": "s⁻¹"}, {"measurement": "Kd", "setting": "[9]; immobilized full-length RSV L+P", "value": 470, "unit": "nM"}, {"measurement": "EC50", "setting": "[10]", "value": 1100, "unit": "nM"}, {"measurement": "EC50", "setting": "[11]", "value": 2700, "unit": "nM"}, {"measurement": "EC50", "setting": "[12]", "value": 970, "unit": "nM"}, {"measurement": "inhibition of primer extension, TrC-14 template", "setting": "[13]", "value": "inhibited"}, {"measurement": "HLM CLint", "setting": "[14]", "value": "10.9 µL/min/mg microsomal protein"}, {"measurement": "CC50", "setting": "[15]", "value": "> 50", "unit": "µM"}, {"measurement": "EC50", "setting": "[16]", "value": 2380, "unit": "nM"}, {"measurement": "EC50", "setting": "[16]; human respiratory syncytial virus, HeLa, 72 h", "value": 2280, "unit": "nM"}, {"measurement": "Emax", "setting": "[16]; human respiratory syncytial virus, read-out: Cellular Emax", "value": 94, "unit": "%"}, {"measurement": "CC50", "setting": "[17]; line RSV-A/A2", "value": "> 50", "unit": "µM"}, {"measurement": "CC50", "setting": "[17]; line RSV-A/Long", "value": "> 50", "unit": "µM"}, {"measurement": "CC50", "setting": "[17]; line RSV-B/Wash/18537", "value": "> 50", "unit": "µM"}, {"measurement": "maximal inhibition of pppGA formation", "setting": "[18]; +3 site", "value": 85, "unit": "%"}, {"measurement": "IC50", "setting": "[18]; +3 site, read-out: IC50 of de novo pppGA (pppGpA) formation", "value": 290, "unit": "nM"}, {"measurement": "IC50", "setting": "[18]; IC50 of 11-mer product", "value": 480, "unit": "nM"}, {"measurement": "maximal inhibition of 11-mer product", "setting": "[18]", "value": 71, "unit": "%"}, {"measurement": "IC50", "setting": "[19]; full-length RSV L+P, n ≥ 2, read-out: Biochemical IC50", "value": 270, "unit": "nM"}, {"measurement": "Emax", "setting": "[19]; read-out: Biochemical Emax", "value": 105, "unit": "%"}, {"measurement": "SPR ka in the presence of JNJ-7184", "setting": "[20]", "value": 140000, "unit": "M⁻¹ s⁻¹"}, {"measurement": "SPR kd in the presence of JNJ-7184", "setting": "[20]", "value": 0.0725, "unit": "s⁻¹"}, {"measurement": "Kd", "setting": "[20]; read-out: SPR KD in the presence of JNJ-7184", "value": 520, "unit": "nM"}, {"measurement": "α (mixed model inhibition) with respect to UTP", "setting": "[21]; mixed noncompetitive/uncompetitive", "value": "0.33 ± 0.27"}, {"measurement": "α with respect to TrC-25 RNA template", "setting": "[21]; noncompetitive", "value": "1.1 ± 0.6"}]}]}
